In the RepoRT retention time repository (doi:10.1021/acs.analchem.1c00972):

Columns and labels:
[1] = RP, Waters ACQUITY UPLC BEH C18, 100 × 1 mm, 1.7 µm, 50 °C, 0.3 mL/min, estimated dead time 0.17 min; A: water + 0.1% formic acid + 20 mM ammonium formate; B: methanol + 0.1% formic acid + 20 mM ammonium formate; gradient (min/%B) 0/0 15/100 21/100 22/0 30/0; details: stereoisomer not certain
[2] = RP, Waters ACQUITY UPLC BEH C18, 100 × 1 mm, 1.7 µm, 50 °C, 0.3 mL/min, estimated dead time 0.17 min; A: water + 10 mM ammonium bicarbonate; B: 10% water + 90% methanol + 10 mM ammonium bicarbonate; gradient (min/%B) 0/0 15/100 21/100 22/0 30/0; details: stereoisomer not certain

CNC1(c2ccccc2Cl)CCCCC1=O (stereo not given) [Ketamine]
LC retention time [1]: 8.96 min | LC retention time [2]: 13.5 min

CC(=O)N1CCN(c2ccc(OCC3COC(Cn4ccnc4)(c4ccc(Cl)cc4Cl)O3)cc2)CC1 (stereo not given) [Ketoconazole]
LC retention time [1]: 13.3 min | LC retention time [2]: 16.1 min

CN1CCC(=C2c3ccccc3CC(=O)c3sccc32)CC1 [Ketotifen]
LC retention time [1]: 10.4 min | LC retention time [2]: 14.7 min

CON=C(C(=O)OC)c1ccccc1COc1ccccc1C [Kresoxim-methyl]
LC retention time [1]: 15.4 min | LC retention time [2]: 15.8 min

[NH3+][C@@H](Cc1cc(I)c(Oc2cc(I)c(O)c(I)c2)c(I)c1)C(=O)[O-] [L-thyroxine]
LC retention time [1]: 14.1 min | LC retention time [2]: 12.9 min

CC(CCc1ccccc1)NCC(O)c1ccc(O)c(C(N)=O)c1 (stereo not given) [Labetalol]
LC retention time [1]: 10.6 min | LC retention time [2]: 12.8 min

N=c1nc(N)c(-c2cccc(Cl)c2Cl)nn1O [Lamotrigin-N2-Oxid]
LC retention time [1]: 9.42 min | LC retention time [2]: 9.15 min

CC=C(C)C(=O)OC1CC[N+]2([O-])CC=C(COC(=O)C(O)(C(C)OC)C(C)(C)O)C12 (stereo not given) [Lasiocarpine N-oxide]
LC retention time [1]: 11 min | LC retention time [2]: 11.7 min

CC=C(C)C(=O)OC1CCN2CC=C(COC(=O)C(O)(C(C)OC)C(C)(C)O)C12 (stereo not given) [Lasiocarpine]
LC retention time [1]: 10.4 min | LC retention time [2]: 13.9 min

C=C1CCC2C(C=C(C)C(=O)C3(O)CC(C)C(O)C3C1O)C2(C)C (stereo not given) [Lathyrol]
LC retention time [1]: 14.7 min | LC retention time [2]: 15 min

CCCCCCCCCCCC(=O)NCC(C)O (stereo not given) [Lauric isopropanolamide]
LC retention time [1]: 16.7 min | LC retention time [2]: 17.1 min

CCCCCCCCCCCC(=O)N(CCO)CCO [Lauryl diethanolamide]
LC retention time [1]: 16.4 min | LC retention time [2]: 16.8 min

c1ccc(C2CN3CCSC3=N2)cc1 (stereo not given) [Levamisole]
LC retention time [1]: 6.7 min | LC retention time [2]: 11.8 min

CC(=O)NCC1CN(c2ccc(N3CCOCC3)c(F)c2)C(=O)O1 (stereo not given) [Linezolid]
LC retention time [1]: 9.9 min | LC retention time [2]: 10 min

CN(C)C(=O)C(CCN1CCC(O)(c2ccc(Cl)cc2)CC1)(c1ccccc1)c1ccccc1 [Loperamide]
LC retention time [1]: 13.7 min | LC retention time [2]: 16.3 min

O=C1Nc2ccc(Cl)cc2C(c2ccccc2Cl)=NC1O (stereo not given) [Lorazepam]
LC retention time [1]: 13.2 min | LC retention time [2]: 13.5 min

CCC(C)C(=O)OC1CC(C)C=C2C=CC(C)C(CCC3CC(O)CC(=O)O3)C21 (stereo not given) [Lovastatin]
LC retention time [1]: 16.8 min | LC retention time [2]: 17.2 min

OC1C=C2CCN3Cc4cc5c(cc4C(C1O)C23)OCO5 (stereo not given) [Lycorine]
LC retention time [1]: 4.33 min | LC retention time [2]: 9.11 min

CNCCCC12CCC(c3ccccc31)c1ccccc12 [Maprotiline]
LC retention time [1]: 12.8 min | LC retention time [2]: 15.4 min

O=C1CCCC2C3CCCN4CCCC(CN12)C34 (stereo not given) [Matrine]
LC retention time [1]: 5.2 min | LC retention time [2]: 13 min

COC(=O)Nc1nc2ccc(C(=O)c3ccccc3)cc2[nH]1 [Mebendazole]
LC retention time [1]: 12.5 min | LC retention time [2]: 12.9 min

CCN(CCCCOC(=O)c1ccc(OC)c(OC)c1)C(C)Cc1ccc(OC)cc1 (stereo not given) [Mebeverine]
LC retention time [1]: 12.1 min | LC retention time [2]: 17.1 min

CN1CCN=C(c2ccccc2)c2cc(Cl)ccc21 [Medazepam]
LC retention time [1]: 11.4 min | LC retention time [2]: 16.4 min

CC(=O)C1(O)CCC2C3CC(C)C4=CC(=O)CCC4(C)C3CCC21C (stereo not given) [Medroxyprogesterone]
LC retention time [1]: 15.2 min | LC retention time [2]: 15.5 min

CC(=O)OC1(C(C)=O)CCC2C3CC(C)C4=CC(=O)CCC4(C)C3CCC21C (stereo not given) [Medroxyprogesteroneacetate]
LC retention time [1]: 15.4 min | LC retention time [2]: 15.8 min

CN(C(=O)COc1nc2ccccc2s1)c1ccccc1 [Mefenacet]
LC retention time [1]: 14.6 min | LC retention time [2]: 14.9 min

CC(=O)OC1(C(C)=O)CCC2C3C=C(C)C4=CC(=O)CCC4(C)C3CCC21C (stereo not given) [Megestrol-17-acetate]
LC retention time [1]: 15.3 min | LC retention time [2]: 15.6 min

CC1CCN(CCCC(=O)c2ccc(F)cc2)CC1 [Melperon]
LC retention time [1]: 10 min | LC retention time [2]: 15.4 min

CC12CC3CC(C)(C1)CC(N)(C3)C2 [Memantine]
LC retention time [1]: 11.9 min | LC retention time [2]: 13.7 min

CCOC(=O)C1(c2ccccc2)CCN(C)CC1 [Meperidine]
LC retention time [1]: 9.63 min | LC retention time [2]: 14.2 min

Cc1cccc(C)c1NC(=O)C1CCCCN1C (stereo not given) [Mepivacaine]
LC retention time [1]: 8.36 min | LC retention time [2]: 13.1 min

CNC(=O)N(C)c1nc2ccccc2s1 [Methabenzthiazuron]
LC retention time [1]: 12.7 min | LC retention time [2]: 13 min

CCC(=O)C(CC(C)N(C)C)(c1ccccc1)c1ccccc1 (stereo not given) [Methadone]
LC retention time [1]: 13.1 min | LC retention time [2]: 18.2 min

Cn1cc[nH]c1=S [Methimazol]
LC retention time [1]: 2.75 min | LC retention time [2]: 2.82 min

CNC(=O)Oc1cc(C)c(S(C)(=O)=O)c(C)c1 [Methiocarb sulfone]
LC retention time [1]: 9.58 min | LC retention time [2]: 9.75 min

COc1ccccc1OCC(O)COC(N)=O (stereo not given) [Methocarbamol]
LC retention time [1]: 9.52 min | LC retention time [2]: 9.71 min

COCCCNc1nc(NC(C)C)nc(SC)n1 [Methoprothryne]
LC retention time [1]: 13.1 min | LC retention time [2]: 14.2 min

CN(Cc1cnc2nc(N)nc(N)c2n1)c1ccc(C(=O)NC(CCC(=O)O)C(=O)O)cc1 (stereo not given) [Methotrexate]
LC retention time [1]: 7.89 min | LC retention time [2]: 6.74 min

CN1C(=O)CC(C)(c2ccccc2)C1=O (stereo not given) [Methsuximide]
LC retention time [1]: 11.2 min | LC retention time [2]: 11.4 min

CCc1cccc(C)c1N1C(=O)COCC1C (stereo not given) [Metolachlor-morpholinone]
LC retention time [1]: 12.6 min | LC retention time [2]: 12.9 min

COCCc1ccc(OCC(O)CNC(C)C)cc1 (stereo not given) [Metoprolol]
LC retention time [1]: 9.58 min | LC retention time [2]: 12.4 min

COc1cc(OC)n2nc(S(=O)(=O)Nc3c(Cl)ccc(C)c3Cl)nc2n1 [Metosulam]
LC retention time [1]: 12 min | LC retention time [2]: 10.9 min

COc1ccc(NC(=O)N(C)C)cc1Cl [Metoxuron]
LC retention time [1]: 10.6 min | LC retention time [2]: 10.7 min

COc1cc(C)c(C(=O)c2c(OC)ccc(Br)c2C)c(OC)c1OC [Metrafenone]
LC retention time [1]: 16 min | LC retention time [2]: 16.4 min

CNC(=O)Oc1cc(C)c(N(C)C)c(C)c1 [Mexacarbate]
LC retention time [1]: 8.62 min | LC retention time [2]: 14.8 min

Clc1ccc(COC(Cn2ccnc2)c2ccc(Cl)cc2Cl)c(Cl)c1 (stereo not given) [Miconazole]
LC retention time [1]: 15.7 min | LC retention time [2]: 18 min

Cc1ncc2n1-c1ccc(Cl)cc1C(c1ccccc1F)=NC2 [Midazolam]
LC retention time [1]: 11.4 min | LC retention time [2]: 14.6 min

CN1CCN2c3ncccc3Cc3ccccc3C2C1 (stereo not given) [Mirtazapine]
LC retention time [1]: 9.7 min | LC retention time [2]: 14.9 min

CC1C(=O)OC2CCN3CC=C(COC(=O)C(C)(O)C1(C)O)C23 (stereo not given) [Monocrotaline]
LC retention time [1]: 5.17 min | LC retention time [2]: 8.97 min

CN1CCC23c4c5ccc(O)c4OC2C(O)C=CC3C1C5 (stereo not given) [Morphine]
LC retention time [1]: 4.19 min | LC retention time [2]: 10.4 min
